Test results: US5646132A, “2(1H)-quinolone compounds” (Adir et Compagnie, priority 1993, dated 1997)

How the values were obtained:
AMPA receptor = test: Membrane binding, [3H]-AMPA, rat cortex homogenate; settings: rat cortex membranes
Protocol: This is carried out using a rat cortex homogenate. The membrane pellet is prepared in a conventional manner in a sucrose buffer by differential centrifugations, and then frozen until used. After thawing, […] of membrane homogenate are taken up in a Tris-HCl (30 mM), CaCl2 (2.5 mM) buffer, pH 7.4, and incubated at 4° C. for 30 minutes in the presence of 25 μl of [^3 H]-AMPA or [^3 H]-kainate and 25 μl of the test product. Non-specific binding is determined in the presence of 10 μM quisqualate (AMPA binding) or 10 μM kainic acid (kainate binding). The membranes are then isolated by filtration. After drying of the filters, the radioactivity is measured by scintillation.

[1] = test system: audiogenic (glutamate-dependent) convulsions in DBA/2 mice; test: Audiogenic convulsions test in DBA/2 mice; assay type: in vivo, mouse (DBA/2); settings: for activity by the oral route, audiogenic convulsions: oral administration
Excerpt: (§1) Furthermore, the compounds of the invention have an in vivo activity which is unique and exceptional for the products of this class. In fact, in the audiogenic convulsions test in DBA/2 mice carried out according to the methodology described by CROUCHER et al.

cortical infarct = test: Permanent focal ischemia in mice (MCA occlusion); assay type: in vivo
Protocol: 2) Permanent focal ischemia in mice
This ischemia can be perfectly reproduced in mice by electrocoagulation of MCA, giving rise to a well delimited cortical infarct 24 hours later. This infarct can be easily measured by histological examination.

[2] = test system: Kainate current (glutamate receptors; AMPA/kainate receptors); test: Currents induced by kainate in Xenopus oocytes expressing the glutamate receptors; assay type: cell-based, rat; settings: kainate 100 μM, read-out: IC50, inhibition of kainate current
Protocol: 2/ Currents induced by EAA in Xenopus oocytes
Xenopus oocytes are injected with 50 ng of poly(A)^+ mRNA isolated from rat cerebral cortex, and incubated for 2 to 3 days at 18° C. to permit protein expression therein. The inward currents induced by EAA are measured in a medium of composition: NaCl (82.5 mM), KCl (2.5 mM), CaCl2 (1 mM), MgCl2 (1 mM), NaH2 PO4 (1 mM), HEPES (5 mM), pH 7.4, by the 2-electrode voltage-clamp method (potential=-60 mV). For measurement of the currents induced by NMDA and glycine, MgCl2 is absent from the medium and CaCl2 is brought to a concentration of 2 mM. The EAA agonists that induce the currents are used at the following concentrations: kainate: 100 μm; AMPA: 30 μM; glycine/NMDA: 3/30 μM. The test product is applied 30 seconds before and during the application of the agonist.

[3] = test system: hippocampal pyramidal neurons (CA1); test: Transient global cerebral ischemia in Gerbil; assay type: in vivo
Protocol: 1) Transient global cerebral ischemia in Gerbil
Transient and complete arrest of cerebral blood flow which is observed in clinical situation during a cardiac infarct, gives rise to a delayed death of specific vulnerable neurons, especially in hippocampus, a crucial cerebral region for cognitive functions. This phenomenon can be experimentally reproduced after transient occlusion of common carotid arteries.
In Gerbil, a transient occlusion (5 minutes) of carotid arteries gives rise to a total loss of hippocampal pyramidal neurons (CA1). This death can be observed only 3 or 4 days after ischemia. Numerous studies have shown that it could be due essentially to an excessive release of glutamate during the post-ischemic reperfusion.
NBQX (30 mg/kg IP) protects 50% of neurons in case of treatment 30 minutes before then b.i.d. after ischemia until histological measurement 4 days later.

[4] = Audiogenic convulsions test in DBA/2 mice; assay type: in vivo, mouse (DBA/2); settings: mouse, in vivo, IP vs PO
Excerpt: as §1

[5] = test system: neurotoxic excitatory currents in the hippocampus; test: Neurotoxic excitatory currents induced in the hippocampus by stimulation of the glutamatergic pathways (Schaeffer's collaterals); settings: read-out: IC50 with respect to neurotoxic excitatory currents induced in the hippocampus
Protocol: This inhibition is strong and constant since the same IC50 (2 μM) is found with respect to neurotoxic excitatory currents induced in the hippocampus by stimulation of the glutamatergic pathways (Schaeffer's collaterals).

[6] = 30 mg/kg IP before then 3 hours after ischemia, significant decrease
[7] = 30 mg/kg, curative only (5 minutes, 1 hour and 2 hours after MCA occlusion)
[8] = 30 mg/kg IP, 30 minutes before then b.i.d. after ischemia, histology 4 days later

Compound	Ki (AMPA receptor)	activity by the oral route, audiogenic convulsions [1]	change of infarct volume (cortical infarct; [6])	change of infarct volume (cortical infarct; [7])	IC50 [2]	protection of hippocampal neurons ([3]; 10 mg/kg IP, same conditions)	protection from neuronal death (in words) [3, 8]	ED50 ([1]; Mus musculus, IP administration, read-out: ID50, audiogenic convulsions)	bioavailability index (ID50 IP/ID50 PO) [4]	IC50 [5]	effect on infarct volume (in words) (cortical infarct; [7])	protection of neurons [3, 8]
N#Cc1cc2[nH]c(=O)c(=O)[nH]c2cc1[N+](=O)[O-] [CNQX, 6-cyano-7-nitro-2,3-quinoxalinedione, reference compound]	0.07 µM	do not have any activity by the oral route										
O=c1[nH]c2cc(Cl)c(Cl)cc2cc1P(=O)(O)O [Example 2, 6,7-Dichloro-2(1H)-quinolone-3-phosphonic acid]	0.9 µM	also after oral administration	-26%	-23%	2 µM	50%	protects completely from neuronal death	18.7 mg/kg	~0.3	2 µM		
NS(=O)(=O)c1cccc2c1c([N+](=O)[O-])cc1[nH]c(=O)c(=O)[nH]c12 [NBQX, 6-nitro-7-sulfamoylbenzo[f]quinoxaline-2,3-dione, reference compound]		do not have any activity by the oral route	-26%								remains ineffective	50%
